US20240066136A1, “MODIFIED PROTEINS AND PROTEIN DEGRADERS” (Cullgen (Shanghai), Inc., priority 2020, published 2024)
Where two headings read alike, the source gives them in different places.

Molecular target: Human DDB1 (Homo sapiens (Human), UniProt Q16531)
Assay: Surface plasmon resonance (SPR) binding assay to immobilized His-DDB1
Method: The binding affinities of heterobifunctional compounds to DDB1 were determined by SPR assay. Purified His-DDB1 proteins were immobilized on a CM5 sensor chip, and a dose range of compound solutions were injected in multi-cycle kinetic format. Data were fit to steady state model and gave equivalent dissociation constants (KD).
Protein Expression and Purification. Human DDB1 (UniPro: Q16531) coding sequences were cloned into pFastBacHTB vector and were expressed in High5 cells using Bac-to-Bac baculovirus expression system (Thermo Fisher Scientific). […] DDB1 proteins were obtained from supernatant of cell lysates and purified through sequential application of Ni affinity (Ni-NTA column. Bio-Rad), and size-exclusion (Superdex 200 16/600GL column, GE Healthcare) column chromatography.
Surface plasmon resonance (SPR) binding assay. All SPR studies were performed on a Biacore X100 plus or T200 instrument (GE Healthcare). Immobilization of purified His-DDB1 was carried out at 25° C. using a CM5 sensor chip. The surface was pre-equilibrated in HBS-EP running buffer (10 mM HEPES, pH7.4, 150 mM NaCl, 3 mM EDTA, 0.05% P20), then activated with EDC/NHS. His-DDB1 proteins were immobilized by amine coupling to a density of 11,000-13,000 resonance units (RUs) on flow cell FC2, whereas flow cell FC1 was used as reference. Both DDB1 immobilized and reference surfaces were deactivated with 1M ethanolamine.
All interaction experiments were performed at 25° C. […] Compound Solutions were injected individually in multi-cycle kinetic format without regeneration (flow rate […], association time 120 s, dissociation time 120 s). Sensorgrams from reference surfaces and blank injections were subtracted from the raw data (double-referencing) and the data was solvent-corrected prior to analysis. All data were fit to steady state affinity model using Biacore Evaluation Software and gave equivalent dissociation constants (KD).

[1] = SPR, steady state affinity model, 25° C., read-out: Binding (DDB1 binder activities, Kd)
[2] = SPR, DDB1 binding moieties with linkers and/or target protein binding moiety, read-out: Binding (Kd)

Sequence of Human DDB1 (Q16531 whole entry): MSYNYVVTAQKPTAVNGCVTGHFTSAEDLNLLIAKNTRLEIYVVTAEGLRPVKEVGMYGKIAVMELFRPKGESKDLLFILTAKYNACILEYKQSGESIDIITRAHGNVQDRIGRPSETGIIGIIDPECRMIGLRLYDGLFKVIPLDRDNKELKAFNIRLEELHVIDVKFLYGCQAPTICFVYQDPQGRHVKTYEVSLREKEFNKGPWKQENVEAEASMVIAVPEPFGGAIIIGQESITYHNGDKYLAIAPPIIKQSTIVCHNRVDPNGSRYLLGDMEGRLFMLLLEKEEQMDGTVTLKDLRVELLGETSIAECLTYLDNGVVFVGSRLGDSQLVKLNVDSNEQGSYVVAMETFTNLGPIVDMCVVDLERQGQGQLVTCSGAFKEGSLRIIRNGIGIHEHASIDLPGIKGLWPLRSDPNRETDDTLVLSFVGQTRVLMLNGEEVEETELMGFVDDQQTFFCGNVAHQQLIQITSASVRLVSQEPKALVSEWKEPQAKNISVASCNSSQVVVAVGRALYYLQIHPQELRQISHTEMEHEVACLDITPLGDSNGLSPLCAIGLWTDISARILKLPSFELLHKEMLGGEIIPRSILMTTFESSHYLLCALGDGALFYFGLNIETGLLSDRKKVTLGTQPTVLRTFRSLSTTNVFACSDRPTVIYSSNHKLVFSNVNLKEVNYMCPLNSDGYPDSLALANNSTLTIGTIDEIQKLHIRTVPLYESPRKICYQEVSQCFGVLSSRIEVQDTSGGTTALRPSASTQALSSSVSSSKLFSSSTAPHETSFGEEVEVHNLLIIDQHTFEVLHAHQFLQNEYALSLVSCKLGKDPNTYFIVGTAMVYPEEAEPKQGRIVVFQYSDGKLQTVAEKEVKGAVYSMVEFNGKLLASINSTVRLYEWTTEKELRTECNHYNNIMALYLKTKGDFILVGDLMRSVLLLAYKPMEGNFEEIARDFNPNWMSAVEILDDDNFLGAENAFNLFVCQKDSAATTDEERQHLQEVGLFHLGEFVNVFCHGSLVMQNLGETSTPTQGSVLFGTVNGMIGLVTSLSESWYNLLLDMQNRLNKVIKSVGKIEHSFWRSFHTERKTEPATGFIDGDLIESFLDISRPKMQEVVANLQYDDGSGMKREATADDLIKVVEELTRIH

| Kd [1] [µM] | Compound | other results |
| --- | --- | --- |
| < 20 | Cc1ccc(C)c(C(=O)Nc2ncc([N+](=O)[O-])s2)c1 [B-174, 2,5-Dimethyl-N-(5-nitrothiazol-2-yl)benzamide] |  |
| 20 to 100 | CCCCNc1ccc(C(=O)N(C)c2ncc([N+](=O)[O-])s2)c(OCC)c1 [B-107, 4-(Butylamino)-2-ethoxy-N-methyl-N-(5-nitrothiazol-2-yl)benzamide] |  |
| > 100 | CC(=O)Nc1ccccc1C(=O)Nc1ncccn1 [B-56, 2-acetamido-N-(pyrimidin-2-yl)benzamide] |  |
| 20 to 100 | Cc1cc(F)ccc1C(=O)Nc1ncc([N+](=O)[O-])s1 [B-171, 4-Fluoro-2-methyl-N-(5-nitrothiazol-2-yl)benzamide] |  |
| 20 to 100 | CCCCNc1ccc(C(=O)Nc2nc(Br)c([N+](=O)[O-])s2)c(-c2ccccc2)c1 [B-113, N-(4-Bromo-5-nitrothiazol-2-yl)-5-(butylamino)-[1,1′-biphenyl]-2-carboxamide] |  |
| 20 to 100 | CNc1ccccc1C(=O)Nc1ncc([N+](=O)[O-])s1 [B-68, 2-(Methylamino)-N-(5-nitrothiazol-2-yl)benzamide] |  |
| 20 to 100 | CCCC(=O)Nc1cccc(OC(C)=O)c1C(=O)Nc1ncc([N+](=O)[O-])s1 [B-23, 3-Butyramido-2-((5-nitrothiazol-2-yl)carbamoyl)phenyl acetate] |  |
| 20 to 100 | CC(=O)Nc1ccccc1C(=O)Nc1ccc(Cl)cn1 [B-54, 2-Acetamido-N-(5-chloropyridin-2-yl)benzamide] |  |
| < 20 | CCOc1ccccc1C(=O)Nc1ncc([N+](=O)[O-])s1 [B-7, 2-Ethoxy-N-(5-nitrothiazol-2-yl)benzamide] |  |
| > 100 | Cc1cc(N2CCN(C)CC2)ccc1C(=O)Nc1ncc([N+](=O)[O-])s1 [B-163, 2-Methyl-4-(4-methylpiperazin-1-yl)-N-(5-nitrothiazol-2-yl)benzamide] |  |
|  | CC(=O)Nc1cc(NCCOCCOCCOCCN)ccc1C(=O)Nc1nc(C)c([N+](=O)[O-])s1 [BL-8, 2-Acetamido-4-((2-(2-(2-(2-aminoethoxy)ethoxy)ethoxy)ethyl)amino)-N-(4-methyl-5-nitrothiazol-2-yl)benzamide] | Kd [2]: 20 to 100 µM |
| > 100 | CCCCNc1ccc(C(=O)Nc2nc(C3CC3)c([N+](=O)[O-])s2)c(-c2ccccc2)c1 [B-115, 5-(Butylamino)-N-(4-cyclopropyl-5-nitrothiazol-2-yl)-[1,1′-biphenyl]-2-carboxamide] |  |
| 20 to 100 | CC(=O)Nc1ccccc1C(=O)Nc1nc(Br)c([N+](=O)[O-])s1 [B-30, 2-acetamido-N-(4-bromo-5-nitrothiazol-2-yl)benzamide] |  |
| < 20 | CCCCNc1ccc(C(=O)Nc2ncc([N+](=O)[O-])s2)c(-c2ccccc2)c1 [B-110, 5-(Butylamino)-N-(5-nitrothiazol-2-yl)-[1,1′-biphenyl]-2-carboxamide] |  |
| < 20 | CC(=O)Nc1ccccc1C(=O)Nc1ncc(C(F)(F)F)s1 [B-38, 2-acetamido-N-(5-(trifluoromethyl)thiazol-2-yl)benzamide] |  |
| 20 to 100 | COC(=O)Oc1ccccc1C(=O)Nc1ncc([N+](=O)[O-])s1 [B-78, Methyl (2-((5-nitrothiazol-2-yl)carbamoyl)phenyl) carbonate] |  |
| 20 to 100 | CCCc1ccccc1C(=O)N(C)c1ncc([N+](=O)[O-])s1 [B-104, N-Methyl-N-(5-nitrothiazol-2-yl)-2-propylbenzamide] |  |
| 20 to 100 | CC(=O)Nc1ccccc1C(=O)Nc1ncc(Cl)s1 [B-35, 2-Acetamido-N-(5-chlorothiazol-2-yl)benzamide] |  |
| 20 to 100 | CC(=O)Nc1ccccc1C(=O)Nc1ccc(C#N)s1 [B-128, 2-Acetamido-N-(5-cyanothiophen-2-yl)benzamide] |  |
| > 100 | O=C(Nc1ccccc1C(=O)Nc1ncc([N+](=O)[O-])s1)c1ccccc1 [B-63, 2-Benzamido-N-(5-nitrothiazol-2-yl)benzamide] |  |
| < 20 | Cc1cnc(NC(=O)c2ccccc2C)s1 [B-175, 2-Methyl-N-(5-methylthiazol-2-yl)benzamide] |  |
| 20 to 100 | CC(Nc1nc(-c2ccco2)nc2c1CCNCC2)c1nnc(N)s1 (stereo not drawn) [B-138, 5-(1-((2-(furan-2-yl)-6,7,8,9-tetrahydro-5H-pyrimido[4,5-d]azepin-4-yl)amino)ethyl)-1,3,4-thiadiazol-2-amine] |  |
| 20 to 100 | CC(=O)Nc1ccccc1C(=O)Nc1ccncn1 [B-57, 2-acetamido-N-(pyrimidin-4-yl)benzamide] |  |

| Kd [1] [µM] | Compound | other results |
| --- | --- | --- |
| > 100 | Cc1cc(C(C)C)ccc1C(=O)Nc1ncc([N+](=O)[O-])s1 [B-164, 4-Isopropyl-2-methyl-N-(5-nitrothiazol-2-yl)benzamide] |  |
| 20 to 100 | CC(=O)Nc1ccccc1C(=O)Nc1nc(Cl)c([N+](=O)[O-])s1 [B-29, 2-Acetamido-N-(4-chloro-5-nitrothiazol-2-yl)benzamide] |  |
| < 20 | CC(C)c1ccccc1C(=O)Nc1ncc([N+](=O)[O-])s1 [B-84, 2-Isopropyl-N-(5-nitrothiazol-2-yl)benzamide] |  |
| 20 to 100 | CC(C)C(=O)Nc1ccccc1C(=O)Nc1ncc([N+](=O)[O-])s1 [B-61, 2-Isobutyramido-N-(5-nitrothiazol-2-yl)benzamide] |  |
| < 20 | CC(C)Cc1ccccc1C(=O)N(C)c1ncc([N+](=O)[O-])s1 [B-106, 2-Isobutyl-N-methyl-N-(5-nitrothiazol-2-yl)benzamide] |  |
| 20 to 100 | CCCNC(=O)c1cccc(OC(C)=O)c1C(=O)Nc1ncc([N+](=O)[O-])s1 [B-14, 2-((5-Nitrothiazol-2-yl)carbamoyl)-3-(propylcarbamoyl)phenyl acetate] |  |
|  | CCCNC(=O)c1ccc(C(=O)Nc2ncc([N+](=O)[O-])s2)c(OC(C)=O)c1 [B-12, 2-((5-Nitrothiazol-2-yl)carbamoyl)-5-(propylcarbamoyl)phenyl acetate] | Kd (read-out: Binding (DDB1 binder activities, Kd)): < 20 µM |
| 20 to 100 | CC(=O)Nc1ccccc1C(=O)Nc1ccc([N+](=O)[O-])cn1 [B-53, 2-Acetamido-N-(5-nitropyridin-2-yl)benzamide] |  |
| 20 to 100 | CCCNC(=O)c1ccc(OC(C)=O)c(C(=O)Nc2ncc([N+](=O)[O-])s2)c1 [B-13, 2-((5-Nitrothiazol-2-yl)carbamoyl)-4-(propylcarbamoyl)phenyl acetate] |  |
| 20 to 100 | Cc1ccc(C(=O)Nc2ncc([N+](=O)[O-])s2)c(C)c1 [B-172, 2,4-Dimethyl-N-(5-nitrothiazol-2-yl)benzamide] |  |
| > 100 | Cc1cc(N(C)C)ccc1C(=O)Nc1ncc([N+](=O)[O-])s1 [B-167, 4-(Dimethylamino)-2-methyl-N-(5-nitrothiazol-2-yl)benzamide] |  |
|  | CC(=O)Nc1cc(NCCOCCOCCOCCOCCNC(=O)CN2CCN(c3ccc(Nc4ncc5c(C)c(C(C)=O)c(=O)n(C6CCCC6)c5n4)nc3)CC2)ccc1C(=O)Nc1nc(C)c([N+](=O)[O-])s1 [D-47, 2-Acetamido-4-((1-(4-(6-((6-acetyl-8-cyclopentyl-5-methyl-7-oxo-7,8-dihydropyrido[2,3-d]pyrimidin-2-yl)amino)pyridin-3-yl)piperazin-1-yl)-2-oxo-6,9,12,15-tetraoxa-3-azaheptadecan-17-yl)amino)-N-(4-methyl-5-nitrothiazol-2-yl)benzamide] | Kd [2]: < 20 µM |
| 20 to 100 | CCCNC(=O)c1cccc(C(=O)Nc2ncc([N+](=O)[O-])s2)c1OC(C)=O [B-11, 2-((5-Nitrothiazol-2-yl)carbamoyl)-6-(propylcarbamoyl)phenyl acetate] |  |
| < 20 | CCNc1ccccc1C(=O)Nc1ncc([N+](=O)[O-])s1 [B-6] |  |
| 20 to 100 | CNc1ccc(C(=O)Nc2ncc([N+](=O)[O-])s2)c(C)c1 [B-166, 2-Methyl-4-(methylamino)-N-(5-nitrothiazol-2-yl)benzamide] |  |
| > 100 | CC(=O)Nc1ccccc1C(=O)Nc1ncc(S(C)(=O)=O)s1 [B-47, 2-Acetamido-N-(5-(methylsulfonyl)thiazol-2-yl)benzamide] |  |
| < 20 | CC(=O)Nc1ccccc1C(=O)Nc1cccc([N+](=O)[O-])c1 [B-124, 2-Acetamido-N-(3-nitrophenyl)benzamide] |  |
| 20 to 100 | COC(=O)Nc1ccccc1C(=O)Nc1ncc([N+](=O)[O-])s1 [B-65, methyl (2-((5-nitrothiazol-2-yl)carbamoyl)phenyl)carbamate] |  |
| > 100 | CNC(=O)c1ccccc1C(=O)Nc1ncc([N+](=O)[O-])s1 [B-5, N^1-Methyl-N^2-(5-nitrothiazol-2-yl)phthalamide] |  |
|  | CC(=O)Nc1cc(NCCCCCCCN)ccc1C(=O)Nc1nc(C)c([N+](=O)[O-])s1 [BL-7, 2-Acetamido-4-((7-aminoheptyl)amino)-N-(4-methyl-5-nitrothiazol-2-yl)benzamide] | Kd [2]: 20 to 100 µM |
| 20 to 100 | CC(=O)Nc1ccccc1C(=O)Nc1ccc(Cl)cc1 [B-58, 2-Acetamido-N-(4-chlorophenyl)benzamide] |  |
| > 100 | CC(=O)Oc1cccc(C)c1C(=O)Nc1ncc([N+](=O)[O-])s1 [B-170, 3-Methyl-2-((5-nitrothiazol-2-yl)carbamoyl)phenyl acetate] |  |
